How the values were obtained:
[1] = test system: normal human lung fibroblasts; assay: Procollagen Type 1 C-Peptide (PIPC) EIA in culture media of TGFβ-treated fibroblasts; type: cell-based; conditions: fibroblasts treated with TGFβ, 24 hours, procollagen ELISA
Method: (§1) Briefly, normal human lung fibroblasts (Lonza #CC-2512; cell passage numbers 2 through 5 were used for all experiments) were seeded (Day 0) and cultured in Dulbecco's modified Eagle medium (DMEM) supplemented with 10% fetal bovine serum (FBS), penicillin, streptomycin and glutamax (Invitrogen) at 37° C. in a humidified incubator with 5% CO2 overnight. On Day 1, cells were harvested, washed with phosphate buffered saline (PBS), and then incubated for 48 hours in fresh serum-free DMEM supplemented with penicillin, streptomycin, and glutamax.
(§2) After this 24 hour incubation, procollagen type 1 levels were measured by collecting culture media, centrifuging to pellet cellular debris, and stored at −80° C. Procollagen Type 1 C-Peptide (PIPC) was quantified using the (PIP) EIA kit (Clontech, Cat. No. MK101) according to manufacturer's instructions. The TGFβ-treated fibroblasts of this example were examined by ribosomal profiling (about 6×10^6 cells/10 cm plate) and western blot analysis (about 1×10^6 cells/well of a 6-well plate).
as §1, with “(Lonza;” for “(Lonza #CC-2512;”, “CO2 conditions” for “CO2”, “glutamax. On Day 3, cells were harvested, resuspended in fresh serum-free DMEM containing silvestrol (1, 5, 10, 75, 100, 500, or 1000 nM) and 10 ng/ml TGFβ, and cultured for 24 hours. Controls included untreated cells and cells treated with only TGFβ.” for “glutamax.”
as §2, with “kit (Clontech)” for “kit (Clontech, Cat. No. MK101)”, “example are” for “example were”
The levels of α-SMA and procollagen type 1, markers of fibroblast transdifferentiation into myofibroblasts and a surrogate for fibrotic disease progression, were measured after a 24 hour incubation of fibroblasts in the presence or absence of TGFβ sieIF4A1 or siCont. The knockdown efficiency was determined by quantitating the eIF4A mRNA level by qPCR (data not shown) and assessing the protein level by western analysis (see FIG. 11).

[2] = test system: normal human lung fibroblasts; assay: Western blot of α-smooth muscle actin (α-SMA) in TGFβ-treated fibroblasts; type: cell-based; conditions: fibroblasts treated with TGFβ, 24 hours, western blot
Method: as §1, §2
TGFβ-dependent activation of the PI3K/Akt/mTOR and ERK pathways were also examined by western blot analysis (about 1×10^6 cells/well from a 6-well plate). Briefly, cells were washed with PBS and lysed in 1× cell lysis buffer (Cell Signaling Technology, Inc., Danvers, Mass.) for 15 minutes at 4° C. Lysates were briefly sonicated, clarified by centrifugation for 15 minutes at 14,000 rpm, and then supernatants were collected. Protein concentration in the soluble fraction was determined by BCA protein assay (Thermo Scientific, Rockford, Ill.). Samples of protein (20 μg) were resolved on 4-20% Bis-Tris gradient gel (Invitrogen, Carlsbad, Calif.) and transferred to nitrocellulose membrane. The resulting blots were blocked for 1 hour at room temperature with Odyssey blocking solution (LI-COR) and then incubated with primary antibodies at 4° C. overnight. The following day, each blot was washed three times for 10 minutes in TBST, and then incubated with goat anti-rabbit fluorescent conjugated secondary antibody (IRDye 800 CW at 1:20,000; LI-COR) for 1 hour at room temperature. The blots were washed and scanned, and then specific proteins were detected by using the LI-COR Odyssey infrared imager. The following antibodies were used at 1:1000 dilution: anti-α-actin (Sigma #A2547), anti-phospho-4EBP(Ser65), anti-phospho-rpS6(Ser235/236)(#4858), anti-phospho-ERK1/2(Thr202/Tyr204)(#4370), anti-phospho-p70S6K(Thr421/Ser424)(#9204), anti-phospho-pAKT(Ser473), anti-phospho-MNK(Thr197/202), and anti-β-actin (#4970). Unless otherwise indicated, the antibodies were from Cell Signaling Technology, Inc. (Danvers, Mass.).
as §1, with “(Lonza;” for “(Lonza #CC-2512;”, “CO2 conditions” for “CO2”, “glutamax. On Day 3, cells were harvested, resuspended in fresh serum-free DMEM containing silvestrol (1, 5, 10, 75, 100, 500, or 1000 nM) and 10 ng/ml TGFβ, and cultured for 24 hours. Controls included untreated cells and cells treated with only TGFβ.” for “glutamax.”
as §2, with “kit (Clontech)” for “kit (Clontech, Cat. No. MK101)”, “example are” for “example were”

SMILES | % Renormalization Collagen [1] | % Renormalization α-SMA [2]
N=C(N)NCCCCCCCN [GC7, N1-guanyl-1,7-diaminoheptane] | + (+ = 0-30%) | + (+ = 0-30%)
O=C(Nc1ccc(Cl)cc1)Nc1ccc2nonc2c1 [BOCPU, 1-(benzo[c][1,2,5]oxadiazol-5-yl)-3-(4-chlorophenyl)urea] |  | +++ (+++ = >60%)
COC(=O)c1ccc2c(c1)NC(=O)/C2=C(\Nc1ccc(N(C)C(=O)CN2CCN(C)CC2)cc1)c1ccccc1 [Nintedanib] | +++ (+++ = >60%) | +++ (+++ = >60%)
CC(C)CCN1c2nc(Nc3cc(F)c(O)c(F)c3)ncc2N(C)C(=O)C1C (stereo not shown) [BI-D1870, 2-[(3,5-Difluoro-4-hydroxyphenyl)amino]-7,8-dihydro-5,7-dimethyl-8-(3-methylbutyl)-6(5H)-pteridone] | +++ (+++ = >60%) | ++ (++ = 30-60%)
